# Measured values taken from patent US7456187B2, “Furanopyrimidine compounds as potassium ion channel inhibitors” (Xention Limited, priority 2004, dated 2008).
# Experiments:
# human Kv1.5 = biological target: T1, human Kv1.5 (Homo sapiens, UniProt P22460); assay: Kv1.5 Autopatch Electrophysiology (whole cell patch-clamp); type: cell-based; details: compound at 1 μM; cells stably transfected with human Kv1.5; room temperature (22-24° C.); voltage step to 0 mV for 1000 ms from -80 mV, total charge
# T1 construct: expressed in transfected cells
# Method: Cells stably transfected with cDNA for human Kv1.5 (in pEF6::VA-His-TOPO) were grown in Dulbecco's Modified Eagle media (DMEM) alpha supplemented with 10% Fetal Calf Serum (FCS), 20 μl/ml penicillin (5000 U/ml) streptomycin (5000 μg/ml), 10 μl/ml [100×] glutamine, and blasticidin (7.5 μg/ml).
# The external bathing solution contained (in mM): 150 NaCl, 10 KCl, […], 3 MgCl2, 1 CaCl2, 10 HEPES, pH 7.4. Patch pipettes were filled with an electrode solution of composition (in mM): 160 KCl, 0.5 MgCl2, 10 HEPES, 1 EGTA, pH 7.4 with KOH.
# Compounds were dissolved in DMSO (100%) and made up in the external bather at a concentration of 1 μM. All experiments were conducted at room temperature (22-24° C.).
# A cell suspension (10 ml), with a density of 100,000 cells/ml, was aliquoted into a 15 ml centrifuge tube and transferred to an incubator (37° C., 5% CO2) for approximately one hour before use. Following 60 min incubation, a tube was taken and centrifuged at 1000 rpm for 4 mins at room temperature. 9.5 ml supernatant was thene discarded, leaving a cell pellet at the bottom of the tube. The pellet was then resuspended using 100 μl of cold (4° C.), filtered (0.22 μm), 0.2% BSA/bather solution (0.02 g BSA/10 ml bather). The bottom of the tube was manually agitated gently until the solution became cloudy with cells. The 100 μl cell resuspension solution was then stored on the bench at 4° C. (using a Peltier-based temperature control device) until used.
# A length of capillary glass (1B150F-4, WPI) was dipped into the cell suspension solution, such that ˜3 cm column of fluid was taken up by capillary action. An Ag/AgCl wire was dropped into the non-dipped end of the capillary also. The outside of the solution-filled end of the capillary was then dried and the capillary was loaded into the AutoPatch™.
# Borosilicate glass patch pipettes (from 1.5 mm OD, thin-walled filamented, GC150-TF capillary glass, Harvard) were pulled using a DMZ pipette puller (Zeitz Instruments), and were back-filled using the internal pipette solution, being careful that no bubbles remain at the tip or in the body of the pipette. Patch pipettes typically had resistances of 2.3-3.5 MΩ. Once filled, the pipette tip and a proportion of the shaft (˜15 mm) were dipped into Sigmacote (Sigma). The recording pipette was then loaded into the AutoPatch™. Automated patch-clamping was initiated by the operator, but thereafter AutoPatch.exe continued the experiment providing that pre-set conditions and criteria were satisfied.
# Whole cell patch-clamp recordings were made using the AutoPatch™ rig, which incorporated an EPC9 amplifier (HEKA, Germany) under control of Pulse software (v8.54, HEKA, Germany), a motion controller with 2 translators (Newport, UK), valve controller (VF1) and a c-level suction device all at room temperature (22-24° C.). This equipment was completely under the control of AutoPatch.exe and operator intervention was only made when there was a requirement to refill the drug reservoirs or to prevent the loss of a cell due to a technical error. Cells with an Rseries greater than 18MΩ were discounted from the experiment.
# Qualification stages prior to perfusion and drug application ensured that the observed current met the criteria for the experiment. Only those cells with an IK>[…] were used for experiments. Cells were continuously perfused with external solution at a flow rate of 1.8-2 ml/minute. […] Online analysis of the hKv1.5 current during the application of compounds was performed by the AutoPatch™ software.
# Electrophysiology voltage-step protocols and analysis of data was performed as follows. Data was sampled at 5 kHz, and filtered with a −3 dB bandwidth of 2.5 kHz. Cells were held at a voltage of −80 mV. Currents were evoked to a voltage step for 1000 ms in duration at 0 mV every 5 s. Currents were analysed using Pulsefit software (v8.54, HEKA, Germany), with the total charge measured during the whole of the voltage step. […]
# T1 sequence (P22460 whole entry): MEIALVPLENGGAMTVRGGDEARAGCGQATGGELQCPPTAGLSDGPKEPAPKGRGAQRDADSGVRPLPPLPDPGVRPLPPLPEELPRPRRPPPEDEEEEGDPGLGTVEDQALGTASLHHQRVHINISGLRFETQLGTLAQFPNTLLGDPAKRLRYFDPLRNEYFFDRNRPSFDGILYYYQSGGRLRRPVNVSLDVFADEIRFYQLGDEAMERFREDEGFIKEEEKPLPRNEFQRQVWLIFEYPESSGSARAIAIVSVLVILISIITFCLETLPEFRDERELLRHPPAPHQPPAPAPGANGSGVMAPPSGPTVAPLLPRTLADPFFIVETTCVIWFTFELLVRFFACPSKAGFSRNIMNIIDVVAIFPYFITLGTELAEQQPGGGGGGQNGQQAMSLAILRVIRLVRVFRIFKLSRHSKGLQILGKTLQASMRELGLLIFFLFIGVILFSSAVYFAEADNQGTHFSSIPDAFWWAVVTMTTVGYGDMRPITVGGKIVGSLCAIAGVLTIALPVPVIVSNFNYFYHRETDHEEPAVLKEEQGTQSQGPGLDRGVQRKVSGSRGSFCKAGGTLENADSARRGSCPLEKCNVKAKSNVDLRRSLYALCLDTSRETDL
Structure (SMILES),inhibition at 1 µM (human Kv1.5) [%],melting point [°C],% Inhibition @1 (μM) (human Kv1.5) [%]
"Fc1ccc(-c2coc3ncnc(NCc4ccccn4)c23)cc1 [Example 21, 5-(4-Fluorophenyl)-N-(pyridin-2-ylmethyl)furo[2,3-d]pyrimidin-4-amine]",39.8,162 to 164,
"c1ccc(-c2coc3ncnc(NCc4ccccn4)c23)cc1 [Example 22, 5-Phenyl-N-(pyridin-2′-ylmethyl)furo[2,3-d]pyrimidin-4-amine]",,,54.00
"Clc1ccc(-c2coc3ncnc(NCc4ccccn4)c23)cc1 [Example 23, 5-(4-Chlorophenyl)-N-(pyridin-2′-ylmethyl)furo[2,3-d]pyrimidin-4-amine]",,,83.80
"COc1ccc(-c2coc3ncnc(NCc4ccccn4)c23)cc1OC [Example 24, 5-(3,4-Dimethoxyphenyl)-N-(pyridin-2′-ylmethyl)furo[2,3-d]pyrimidin-4-amine]",,,15.81
"c1ccc(CNc2ncnc3occ(-c4ccc5c(c4)OCO5)c23)nc1 [Example 25, 5-(1,3-Benzodioxol-5′-yl)-N-(pyridin-2′-ylmethyl)furo[2,3-d]pyrimidin-4-amine]",,,65.17
"Cc1oc2ncnc(NCc3ccccn3)c2c1-c1ccccc1 [Example 26, 6-Methyl-5-phenyl-N-(pyridin-2′-ylmethyl)furo[2,3-d]pyrimidin-4-amine]",,,83.00
"COCCNc1nc(NCc2ccccn2)c2c(-c3ccccc3)coc2n1 [Example 41, N^2-(2-Methoxyethyl)-5-phenyl-N^4-pyridin-2-ylmethyl-furo[2,3-d]pyrimidine-2,4-diamine]",99,96 to 98,
"c1ccc(-c2coc3nc(N4CCOCC4)nc(NCc4ccccn4)c23)cc1 [Example 42, (2-Morpholin-4-yl-5-phenyl-furo[2,3-d]pyrimidin-4-yl)-puridin-2-ylmethyl-amine]",,,99.00
"OCCN(CCO)c1nc(NCc2ccccn2)c2c(-c3ccccc3)coc2n1 [Example 43, 2-((2-Hydroxyethyl)-{5-Phenyl-4-[(pyridine-2-ylmethyl)-amino]-furo[2,3-d]pyrimidin-2-yl}-amino)-ethanol]",82,,

# The next lines start with the values.
inhibition at 1 µM (human Kv1.5) [%],melting point [°C],% Inhibition @1 (μM) (human Kv1.5) [%],Structure (SMILES)
75,,,"OCC(CO)Nc1nc(NCc2ccccn2)c2c(-c3ccccc3)coc2n1 [Example 44, 2-{5-Phenyl-4-[(pyridin-2-ylmethyl)-amino]furo[2,3-d]pyrimidin-2-ylamino}-propane-1,3-diol]"
42,,,"OCCN(CCO)c1nc(NCc2ccccn2)c2c(-c3ccc(F)cc3)coc2n1 [Example 45, 2-((2-Hydroxyethyl)-{5-(4-fluorophenyl)-4-[(pyridine-2-ylmethyl)-amino]-furo[2,3-d]pyrimidin-2-yl}-amino)-ethanol]"
99,108 to 110,,"CN(C)c1nc(NCc2ccccn2)c2c(-c3ccccc3)coc2n1 [Example 46, N^2,N^2-Dimethyl-5-phenyl-N^4-pyridin-2-ylmethyl-furo[2,3-d]pyrimidine-2,4-diamine]"
98,52 to 54,,"Cc1cccc(CNc2nc(N(C)C)nc3occ(-c4ccccc4)c23)n1 [Example 47, N^2,N^2-Dimethyl-N^4-(6-methyl-pyridin-2-ylmethyl)-5-phenyl-furo[2,3-d]pyrimidine-2,4-diamine]"
98,,,"CN(C)c1nc(NCc2ccco2)c2c(-c3ccccc3)coc2n1 [Example 48, N^4-Furan-2-ylmethyl-N^2,N^2-dimethyl-5-phenyl-furo[2,3-d]pyrimidine-2,4-diamine]"
75,,,"Cc1oc2nc(N(C)C)nc(NCc3ccccn3)c2c1-c1ccccc1 [Example 49, 6,N^2,N^2-Trimethyl-5-phenyl-N4-pyridin-2-ylmethyl-furo[2,3-d]pyrimidine-2,4-diamine]"
32,107 to 109,,"Cc1oc2nc(N(C)C)nc(NCc3ccccn3)c2c1-c1ccc(F)cc1 [Example 50, 5-(4-Fluorophenyl)-6,N^2,N^2-trimethyl-N^4-pyridin-2-ylmethyl-furo[2,3-d]pyrimidine-2,4-diamine]"
99,97 to 99,,"COCCOc1nc(NCc2ccccn2)c2c(-c3ccccc3)coc2n1 [Example 51, [2-(2-Methoxyethoxy)-5-phenyl-furo[2,3-d]pyrimidin-4-yl]-pyridin-2-ylmethylamine]"
